Test results taken from patent US10308650B2, “Pesticidally active tetracyclic derivatives with sulfur containing substituents” (Syngenta Participations AG, priority 2014, dated 2019).

Assays:
Assay type in all cases: in vivo
[1] = tested on: Bemisia tabaci (Cotton White Fly); assay: Activity against Bemisia tabaci: feeding/contact activity; details: foliar, 144 h, application rate of 200 ppm, cotton leaf discs, adult white flies, 6 days after incubation
Method: Example B1: Activity Against Bemisia tabaci (Cotton White Fly): Feeding/Contact Activity
Cotton leaf discs were placed on agar in 24-well microtiter plates and sprayed with aqueous test solutions prepared from 10,000 ppm DMSO stock solutions. After drying the leaf discs were infested with adult white flies. The samples were checked for mortality 6 days after incubation.

[2] = tested on: Diabrotica balteata (Corn Root Worm); assay: Activity against Diabrotica balteata; details: 96 h, application rate of 200 ppm, maize sprouts, L2 larvae, 4 days after infestation, read-out: effect in at least one of the two categories (mortality or growth inhibition)
Method: Example B2: Activity Against Diabrotica balteata (Corn Root Worm)
Maize sprouts placed onto an agar layer in 24-well microtiter plates were treated with aqueous test solutions prepared from 10,000 ppm DMSO stock solutions by spraying. After drying, the plates were infested with L2 larvae (6 to 10 per well). The samples were assessed for mortality and growth inhibition in comparison to untreated samples 4 days after infestation.

[3] = tested on: Euschistus heros (Neotropical Brown Stink Bug); assay: Activity against Euschistus heros; details: 120 h, application rate of 200 ppm, soybean leaves, N2 nymphs, 5 days after infestation, read-out: effect in at least one of the two categories (mortality or growth inhibition)
Method: Example B3: Activity Against Euschistus heros (Neotropical Brown Stink Bug)
Soybean leaves on agar in 24-well microtiter plates were sprayed with aqueous test solutions prepared from 10,000 ppm DMSO stock solutions. After drying the leaves were infested with N2 nymphs. The samples were assessed for mortality and growth inhibition in comparison to untreated samples 5 days after infestation.

[4] = tested on: Frankliniella occidentalis (Western Flower Thrips); assay: Activity against Frankliniella occidentalis: feeding/contact activity; details: foliar, 168 h, application rate of 200 ppm, sunflower leaf discs, population of mixed ages, 7 days after infestation
Method: Example B4: Activity Against Frankliniella occidentalis (Western Flower Thrips): Feeding/Contact Activity
(§1) Sunflower leaf discs were placed on agar in 24-well microtiter plates and sprayed with aqueous test solutions prepared from 10,000 DMSO stock solutions. After drying the leaf discs were infested with a Frankliniella population of mixed ages. The samples were assessed for mortality 7 days after infestation.

[5] = tested on: Myzus persicae (Green Peach Aphid); assay: Activity against Myzus persicae: feeding/contact activity; details: foliar, 144 h, application rate of 200 ppm, sunflower leaf discs, aphid population of mixed ages, 6 days after infestation, read-out: mortality
Method: Example B5: Activity Against Myzus persicae (Green Peach Aphid): Feeding/Contact Activity
Sunflower leaf discs were placed onto agar in a 24-well microtiter plate and sprayed with aqueous test solutions prepared from 10,000 ppm DMSO stock solutions. After drying, the leaf discs were infested with an aphid population of mixed ages. The samples were assessed for mortality 6 days after infestation.

[6] = tested on: Myzus persicae (Green Peach Aphid); assay: Activity against Myzus persicae: systemic activity; details: 144 h, test rate of 24 ppm, roots of infested pea seedlings in test solution, 6 days, read-out: mortality
Method: Example B6: Activity Against Myzus persicae (Green Peach Aphid). Systemic Activity
Roots of pea seedlings infested with an aphid population of mixed ages were placed directly into aqueous test solutions prepared from 10,000 DMSO stock solutions. The samples were assessed for mortality 6 days after placing seedlings into test solutions.

[7] = tested on: Plutella xylostella (Diamond Back Moth); assay: Activity against Plutella xylostella; details: 120 h, application rate of 200 ppm, artificial diet, L2 larvae, 5 days after infestation, read-out: effect in at least one of the two categories (mortality or growth inhibition)
Method: Example B8: Activity Against Plutella xylostella (Diamond Back Moth)
24-well microtiter plates with artificial diet were treated with aqueous test solutions prepared from 10,000 ppm DMSO stock solutions by pipetting. After drying, the plates were infested with L2 larvae (10 to 15 per well). The samples were assessed for mortality and growth inhibition in comparison to untreated samples 5 days after infestation.

[8] = tested on: Spodoptera littoralis (Egyptian Cotton Leaf Worm); assay: Activity against Spodoptera littoralis (cotton leaf discs, spray); details: foliar, 72 h, application rate of 200 ppm, cotton leaf discs, L1 larvae, 3 days after infestation, read-out: control (mortality, anti-feeding effect, growth inhibition)
Method: Example B9: Activity Against Spodoptera littoralis (Egyptian Cotton Leaf Worm)
Cotton leaf discs were placed onto agar in 24-well microtiter plates and sprayed with aqueous test solutions prepared from 10,000 ppm DMSO stock solutions. After drying the leaf discs were infested with five L1 larvae. The samples were assessed for mortality, anti-feeding effect, and growth inhibition in comparison to untreated samples 3 days after infestation. Control of Spodoptera littoralis by a test sample is given when at least one of the categories mortality, anti-feedant effect, and growth inhibition is higher than the untreated sample.

[9] = tested on: Spodoptera littoralis (Egyptian Cotton Leaf Worm); assay: Activity against Spodoptera littoralis (lettuce, uptake by the roots from agar); details: 144 h, test rate of 12.5 ppm, lettuce grown on treated agar, Spodoptera eggs, 6 days after infestation, read-out: effect in at least one of the three categories (mortality, anti-feeding, or growth inhibition)
Excerpt: Example B10: Activity Against Spodoptera littoralis (Egyptian Cotton Leaf Worm)
Test compounds were applied by pipette from 10,000 ppm DMSO stock solutions into 24-well plates and mixed with agar. Lettuce seeds were placed onto the agar and the multi well plate was closed by another plate which contained also agar. After 7 days the compound was absorbed by the roots and the lettuce grew into the lid plate. The lettuce leaves were then cut off into the lid plate. Spodoptera eggs were pipetted through a plastic stencil onto a humid gel blotting paper and the lid plate was closed with it. The samples were assessed for mortality, anti-feedant effect and growth inhibition in comparison to untreated samples 6 days after infestation.

[10] = tested on: Thrips tabaci (Onion Thrips); assay: Activity against Thrips tabaci: feeding/contact activity; details: foliar, 144 h, application rate of 200 ppm, sunflower leaf discs, thrips population of mixed ages, 6 days after infestation
Method: Example B12: Activity Against Thrips tabaci (Onion Thrips) Feeding/Contact Activity
as §1, with “10,000 ppm” for “10,000”, “thrips” for “Frankliniella”, “6” for “7”

[11] = tested on: Aedes aegypti (Yellow Fever Mosquito); assay: Activity against Aedes aegypti; details: 200 ppm in ethanol, dry deposit in 12 well plates, adult females, after 48 h and/or 24 h
Method: Example B13: Activity Against Aedes aegypti (Yellow Fever Mosquito)
Test solutions, at an application rate of 200 ppm in ethanol, were applied to 12 well tissue culture plates. Once the deposits were dry, five, two to five day old adult female Aedes aegypti were added to each well, and sustained with a 10% sucrose solution in a cotton wool plug. Assessment of knockdown was made one hour after introduction, and mortality was assessed at 24 and 48 hours after introduction.

[12] = tested on: Myzus persicae (Green Peach Aphid); assay: Activity against Myzus persicae: intrinsic activity; details: 120 h, test rate of 12 ppm, sucrose solution under Parafilm, 5 days after infestation, read-out: mortality
Excerpt: Example B7: Activity Against Myzus persicae (Green Peach Aphid). Intrinsic Activity
Test compounds prepared from 10,000 ppm DMSO stock solutions were applied by pipette into 24-well microtiter plates and mixed with sucrose solution. The plates were closed with a stretched Parafilm. A plastic stencil with 24 holes was placed onto the plate and infested pea seedlings were placed directly on the Parafilm. The infested plate was closed with a gel blotting paper and another plastic stencil and then turned upside down. The samples were assessed for mortality 5 days after infestation.

[13] = tested on: Tetranychus urticae (Two-Spotted Spider Mite); assay: Activity against Tetranychus urticae: feeding/contact activity; details: foliar, 192 h, application rate of 200 ppm, bean leaf discs, mixed population (mobile stages), 8 days after infestation
Method: Example B11: Activity Against Tetranychus urticae (Two-Spotted Spider Mite): Feeding/Contact Activity
Bean leaf discs on agar in 24-well microtiter plates were sprayed with aqueous test solutions prepared from 10,000 ppm DMSO stock solutions. After drying the leaf discs were infested with a mite population of mixed ages. The samples were assessed for mortality on mixed population (mobile stages) 8 days after infestation.

CCS(=O)(=O)c1cc2c(cc1-c1nc3cc(C(F)(F)F)ncc3n1C)nc(C(F)(F)F)n2C [Compound A9, 2-[6-ethylsulfonyl-1-methyl-2-(trifluoromethyl)benzimidazol-5-yl]-3-methyl-6-(trifluoromethyl)imidazo[4,5-c]pyridine]
≥ 80%: mortality at 200 ppm [1] | percent effect (mortality or growth inhibition) at 200 ppm [2] | percent effect (mortality or growth inhibition) at 200 ppm [3] | mortality at 200 ppm [4] | mortality at 200 ppm [5] | mortality at 24 ppm [6] | percent effect (mortality or growth inhibition) at 200 ppm [7] | mortality at 200 ppm [8] | percent effect (mortality, anti-feeding or growth inhibition) at 12.5 ppm [9] | mortality at 200 ppm [10] | pest or weed control at 200 ppm [11]

CCS(=O)(=O)c1cc2ccccc2cc1-c1nc2cc(C(F)(F)F)ncc2n1C [Compound A24, 2-(3-ethylsulfonyl-2-naphthyl)-3-methyl-6-(trifluoromethyl)imidazo[4,5-c]pyridine]
≥ 80%: percent effect (mortality or growth inhibition) at 200 ppm [2] | percent effect (mortality or growth inhibition) at 200 ppm [3] | mortality at 200 ppm [5] | mortality at 12 ppm [12] | percent effect (mortality or growth inhibition) at 200 ppm [7] | mortality at 200 ppm [8] | percent effect (mortality, anti-feeding or growth inhibition) at 12.5 ppm [9] | mortality at 200 ppm [13] | pest or weed control at 200 ppm [11]

CCS(=O)(=O)c1cc2nc(C(F)(F)F)n(C)c2nc1-c1nc2cc(C(F)(F)F)ncc2n1C [Compound A32, 6-ethylsulfonyl-3-methyl-5-[3-methyl-6-(trifluoromethyl)imidazo[4,5-c]pyridin-2-yl]-2-(trifluoromethyl)imidazo[4,5-b]pyridine]
≥ 80%: mortality at 200 ppm [1] | percent effect (mortality or growth inhibition) at 200 ppm [2] | percent effect (mortality or growth inhibition) at 200 ppm [3] | mortality at 200 ppm [5] | mortality at 24 ppm [6] | percent effect (mortality or growth inhibition) at 200 ppm [7] | mortality at 200 ppm [8] | percent effect (mortality, anti-feeding or growth inhibition) at 12.5 ppm [9] | mortality at 200 ppm [10] | pest or weed control at 200 ppm [11]

CCS(=O)(=O)c1cc2c(nc1-c1nc3cc(C(F)(F)F)ncc3n1C)CC(C)(C)O2 [Compound A59, 6-ethylsulfonyl-2,2-dimethyl-5-[3-methyl-6-(trifluoromethyl)imidazo[4,5-c]pyridin-2-yl]-3H-furo[3,2-b]pyridine]
≥ 80%: mortality at 200 ppm [1] | percent effect (mortality or growth inhibition) at 200 ppm [2] | percent effect (mortality or growth inhibition) at 200 ppm [3] | mortality at 200 ppm [5] | mortality at 24 ppm [6] | percent effect (mortality or growth inhibition) at 200 ppm [7] | mortality at 200 ppm [8] | percent effect (mortality, anti-feeding or growth inhibition) at 12.5 ppm [9] | mortality at 200 ppm [10]
